Laboratory results published in patent US20040248232A1, “Method for treating Alzheimer's dementia” (priority 2003, published 2004).
“Also recorded” adds a separate entry of the source. Each block holds one compound with its values, some of them ahead of it. Non-standard residues stand in square brackets, D forms with d. Residues, ends and D or L forms follow the SMILES beside them. *: point of attachment. Sta = CC(C)C[C@H](N)[C@@H](O)CC(=O)O; Isovaleryl = CC(C)CC(=O)*

What was measured:
[1] = system: β-secretase endoprotease activity in chromaffin vesicle lysate; test: Effect of reducing agents on β-secretase endoprotease activity in chromaffin vesicles; type: biochemical, bovine; settings: 1 mM; lysed vesicles, Z*Val-Lys-Met-MCA
Method: (§1) The β-secretase endoprotease activity was identified by incubating the chromaffin vesicle lysate (2-10 μl of 10-20 mg protein/ml) with the Z★Val-Lys-Met-MCA substrate (100 μM final concentration) and detecting AMC fluorescence. The chromaffin vesicle lysate was prepared as described in Example I. The endoprotease activity was determined as a function of pH by varying the pH of the incubation solution between 3.0 to 8.0 in 0.5 pH increments. Citric acid, sodium phosphate, and Tris-HCl buffers (100 mM final concentration) were used to adjust the pH of the incubation solutions between 3.0 to 5.5, 6.0 to 7.5, and 8.0, respectively. Duplicate samples at each pH increment (100 μl each) were distributed among 22 wells in a covered microtiter well plate and incubated at 37° C. for 8 hours in a water bath.
(§2) The effect of the reducing agent dithiothreitol (DTT) on β-secretase endoprotease activity was determined using the assay described in Example III. Briefly, the lysed vesicles were incubated with the substrate Z★Val-Lys-Met-MCA in the presence or absence of 1 mM DTT and the resulting fluorescence plotted as a function of pH. Both with and without DTT, β-secretase endoprotease activity was detected and in both cases that activity had pH optimum of about 4.0 to 6.0, which is consistent with the intravesicular pH of chromaffin vesicles.

[2] = molecular target: T1, Peak II β-secretase endoprotease activity (cathepsin B) (Bos taurus, UniProt P07688); test: Protease inhibitors of β-secretase endoprotease activity in Peak II; type: biochemical, bovine; settings: for Peak II (%): % of control (no inhibitor); for inhibition of Peak II activity, in words: text summary of Table IV
T1 construct: from tissue; host or cells: bovine adrenal medulla chromaffin vesicles; Con A, Sephacryl S200 (Peak II), Mono Q (II-A, II-B)

[3] = molecular target: T2, Peak I β-secretase endoprotease activity (cathepsin L) (Bos taurus, UniProt P25975); test: Protease inhibitors of β-secretase endoprotease activity in Peak I; type: biochemical, bovine; settings: for Peak I (%): % of control (no inhibitor); for inhibition of Peak I activity, in words: text summary of Table IV; for β-secretase activity of Peak I: inhibitor at 1 μM (Example XVI)
T2 construct: from tissue; host or cells: bovine adrenal medulla chromaffin vesicles; Con A then Sephacryl S200, Peak I
T2 sequence (P25975 118-334): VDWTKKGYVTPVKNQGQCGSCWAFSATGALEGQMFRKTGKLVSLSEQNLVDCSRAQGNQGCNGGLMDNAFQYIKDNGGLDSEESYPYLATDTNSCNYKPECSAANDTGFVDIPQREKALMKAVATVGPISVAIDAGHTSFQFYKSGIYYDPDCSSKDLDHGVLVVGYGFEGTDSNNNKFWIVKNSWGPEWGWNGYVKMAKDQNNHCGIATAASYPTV
Method: The effect of the aminopeptidase M and the basic pH buffer used in the β-secretase endoprotease activity assay was determined. […] Three assays were conducted, one with aminopeptidase M in its basic pH buffer, another with the basic pH buffer but not aminopeptidase M, and a third without either the buffer or the aminopeptidase M. Briefly, the chromaffin vesicle lysate and the substrate Z★Val-Lys-Met-MCA were incubated for 30 minutes-at a specified pH and the resulting fluorescence measured. The aminopeptidase M in the basic pH buffer or:.that buffer alone (final concentration of 75 mM Tris-HCl pH 8.2) was added to the assay and incubated an additional 60 minutes at 37° C.
The protease inhibitor was added to each assay at the start of the reaction at the appropriate concentration. The extent of inhibition was expressed as a percentage of the activity without the inhibitor (control).

[4] = system: 27 kDa and 31 kDa cysteine protease bands of Peak I; test: 125I-DCG-04 affinity labeling of Peak I; type: binding, bovine; settings: inhibitor 1 μM
Method: An aliquot of Peak I was incubated at room temperature with 125I-DCG-04 for 30 minutes, and the affinity labeled β-secretase was then subjected to one-dimensional SDS-PAGE followed by electrophoretic transfer of proteins to nitrocellulose membranes, and 125I-DCG-04 labeled proteins were detected with streptavidin-HRP, as described previously (Greenbaum et al. Chem. Biol. 7:569-81, 2000, Greenbaum et al., Chemistry and Biology 10, 1085-1094, 2002; Greenbaum et al., Mol. Cell. Proteomics, 1:60-68, 2002).
The 31 kDa band resembles the molecular weight of the cysteine protease cathepsin B (Barrett et al., “Handbook of Proteolytic Enzymes,” Pub. Academic Press, SanDiego, pp 609-617, 1998; and Greenbaum et al., Mol. Cell. Proteomics, 1:60-68, 2002). The selective cathepsin B inhibitor, CA-074, was used to determine whether the 27 kDa or 31 kDa bands were responsible for the β-secretase activity of Peak I (Yamamoto et al., J. Mol. Biol. 227:942-944, 1992; Gour-Salin et al., J. Med. Chem. 36:720-725, 1993; Bogyo et al., Chem Biol. 1:27-38, 2000).

[5] = system: β-secretase endoprotease activity in chromaffin vesicle lysate; test: Protease inhibitors of β-secretase endoprotease activity in chromaffin vesicle lysate (Z*Val-Lys-Met-MCA cleavage, AMC fluorescence); type: biochemical, bovine; settings: for % CONTROL: pH 5.5, with aminopeptidase M, activity as % of activity without inhibitor; for inhibition of β-secretase endoprotease activity in chromaffin vesicle lysate, in words: text summary of Table II
Method: as §1
As discussed above, endoprotease cleavage between the Met-MCA bond in the Z★Val-Lys-Met-MCA substrate produces fluorescent AMC, but endoprotease cleavage between the Lys-Met or Val-Lys bonds in that substrate produces non-fluorescent Lys-Met-MCA and Met-MCA peptides. To insure that the latter two endoprotease cleavages were detected, aminopeptidase M (20 μg/ml final concentration, BOEHRINGER […]) was added to each incubation solutions to produce fluorescent AMC from the Lys-Met-MCA and Met-MCA peptides. Prior to adding the aminopeptidase M, each incubation solution was adjusted to a pH 8.3 using Tris-HCl because aminopeptidase M functions at a basic pH. A second incubation at 37° C. for 1 hour in the water bath was conducted to complete the aminopeptidase M reaction.
Upon termination of that second incubation, AMC fluorescence was assayed using a fluorometer (IDEXX fluorometer, FCA Fluorescence Concentration Analyzer, cat. no. 10-105-2, BAXTER HEALTH CARE CORP., Mundelein, Ill.) at excitation and emission wavelengths of 365 and 450 nm, respectively. Standard AMC concentrations were also measured to quantitate relative fluorescence with the molar amount (pmol) of AMC generated by the secretase. The resulting AMC fluorescence reflects the endoprotease activity in cleaving either the Met-MCA, Lys-Met. and Val-Lys bonds in the Z★Val-Lys-Met-MCA substrate.
as §2
The effect of the aminopeptidase M and the basic pH buffer used in the β-secretase endoprotease activity assay was determined. The assay was conducted as described in Example VIII with DTT. Three assays were conducted, one with aminopeptidase M in its basic pH buffer, another with the basic pH buffer but not aminopeptidase M, and a third without either the buffer or the aminopeptidase M. Briefly, the chromaffin vesicle lysate and the substrate Z★Val-Lys-Met-MCA were incubated for 30 minutes-at a specified pH and the resulting fluorescence measured. The aminopeptidase M in the basic pH buffer or:.that buffer alone (final concentration of 75 mM Tris-HCl pH 8.2) was added to the assay and incubated an additional 60 minutes at 37° C. […] The assay conducted with aminopeptidase M and its basic pH buffer and that of the control assay having just the basic pH buffer produced approximately the same amount of fluorescence.
The effect of various protease inhibitors on β-secretase endoprotease activity in the lysate was determined at the pH optimum 5.5 in the assay described in Example IX containing aminopeptidase M. Protease inhibitors specific for various protease classes were used. […]

[6] = system: cathepsin activity in brain; settings: administered to animals; cited from earlier work
[7] = system: primary chromaffin cell cultures; test: Aβ-peptide secretion by chromaffin cells (RIA of Aβ1-40 in media); type: cell-based; settings: 50 mM, 15 minutes
Method: Primary chromaffin cell cultures containing approximately 2 million cells in each culture were produced using established methods (Hook et al., ibid.; and Tezapsidis et al., ibid.). Exocytosis of the contents of the vesicles in such cells was induced by exposing the cells to KCl (50 mM) or nicotine (10 μM) for 15 minutes.

Compound: CC(C)C[C@H](NC(=O)[C@@H](NC(=O)N[C@@H](Cc1ccccc1)C(=O)O)[C@@H]1CCN=C(N)N1)C(=O)N[C@H](C=O)Cc1ccccc1 [Chymostatin]
Peak II (%) ([2]; inhibitor 10 μM): 35%
inhibition of Peak II activity, in words [2]: maximally inhibited
Peak I (%) ([3]; inhibitor 10 μM): 0%
inhibition of Peak I activity, in words [3]: maximally inhibited
% CONTROL ([5]; inhibitor 10 μM): 11%
inhibition of β-secretase endoprotease activity in chromaffin vesicle lysate, in words [5]: greatly inhibited

Compound: [Cl-].[K+] [KCl, potassium chloride]
increase in the concentration of Aβ1-40 peptide in the media relative to control media [7]: approximately 350 fold

Compound: CC(=O)N[C@@H](CC(C)C)C(=O)N[C@@H](CC(C)C)C(=O)N[C@H](C=O)CCCNC(=N)N [Leupeptin]
Peak II (%) ([2]; inhibitor 100 μM): 0%
inhibition of Peak II activity, in words [2]: maximally inhibited; also recorded: completely inhibited
Peak I (%) ([3]; inhibitor 100 μM): 0%
inhibition of Peak I activity, in words [3]: maximally inhibited; also recorded: completely inhibited
% CONTROL ([5]; inhibitor 100 μM): 0%
inhibition of β-secretase endoprotease activity in chromaffin vesicle lysate, in words [5]: completely inhibited

Compound: O=S(=O)(F)Cc1ccccc1 [PMSF, phenylmethylsulfonyl fluoride]
inhibition of Peak II activity, in words [2]: did not significantly inhibit; also recorded: only slightly inhibited
inhibition of Peak I activity, in words [3]: did not significantly inhibit; also recorded: only slightly inhibited
% CONTROL ([5]; inhibitor 100 μM): 58%
inhibition of β-secretase endoprotease activity in chromaffin vesicle lysate, in words [5]: significantly inhibited

Compound: CC(C)CC(=O)N[C@H](C(=O)N[C@H](C(=O)N[C@@H](CC(C)C)[C@@H](O)CC(=O)N[C@@H](C)C(=O)N[C@@H](CC(C)C)[C@@H](O)CC(=O)O)C(C)C)C(C)C [Pepstatin A] (Isovaleryl-VV[Sta]A[Sta]-OH)
Peak II (%) ([2]; inhibitor 100 μM): 132%
inhibition of Peak II activity, in words [2]: did not significantly inhibit; also recorded: increased the activity
Peak I (%) ([3]; inhibitor 100 μM): 85%
inhibition of Peak I activity, in words [3]: did not significantly inhibit; also recorded: slightly inhibited
% CONTROL ([5]; inhibitor 10 μM): 78%
inhibition of β-secretase endoprotease activity in chromaffin vesicle lysate, in words [5]: slightly inhibited

Compound: O=C(O)c1cc[c]([Hg][OH])cc1 [pHMB]
Peak II (%) ([2]; inhibitor 1 mM): 68%
inhibition of Peak II activity, in words [2]: slightly inhibited; also recorded: inhibited
Peak I (%) ([3]; inhibitor 1 mM): 67%
inhibition of Peak I activity, in words [3]: slightly inhibited; also recorded: inhibited
% CONTROL ([5]; inhibitor 1 mM): 35%
inhibition of β-secretase endoprotease activity in chromaffin vesicle lysate, in words [5]: inhibited
inhibition of β-secretase endoprotease activity in chromaffin vesicle lysate, in words ([5]; listed as PHMB): greatly inhibited

Continued, in another order:

increase in the β-secretase endoprotease activity [1]: approximately 5 fold
Compound: O[C@H](CS)[C@H](O)CS (racemic) [DTT, dithiothreitol]

Peak II (%) ([2]; inhibitor 500 μM): 72%
inhibition of Peak II activity, in words [2]: only slightly inhibited
Peak I (%) ([3]; inhibitor 500 μM): 31%
inhibition of Peak I activity, in words [3]: significantly inhibited
Compound: c1cnc2c(c1)ccc1cccnc12 [1,10 Phenanthroline]

β-secretase activity of Peak I [3]: not affected
Compound: CCCNC(=O)[C@H]1O[C@@H]1C(=O)N[C@H](C(=O)N1CCC[C@H]1C(=O)O)[C@@H](C)CC [CA-074]
125I-DCG-04 labeling of Peak I bands in the presence of the inhibitor [4]: labeling of only the 27 kDa band

Peak II (%) ([2]; inhibitor 10 μM): 0%
Peak I (%) ([3]; inhibitor 10 μM): 0%
β-secretase activity of Peak I [3]: completed inhibited
% CONTROL ([5]; inhibitor 10 μM): 0%
inhibition of β-secretase endoprotease activity in chromaffin vesicle lysate, in words [5]: completely inhibited
Compound: CC(C)CCNC(=O)[C@H](CC(C)C)NC(=O)[C@H]1O[C@@H]1C(=O)O [E64c]
inhibition of Peak II activity, in words [2]: maximally inhibited; also recorded: completely inhibited
cathepsin activity in brain [6]: effectively block
inhibition of Peak I activity, in words [3]: maximally inhibited; also recorded: completely inhibited

Peak II (%) ([2]; inhibitor 1 mM): 138%
Peak I (%) ([3]; inhibitor 1 mM): 99%
% CONTROL ([5]; inhibitor 1 mM): 100%
Compound: O=C(O)CN(CCN(CC(=O)O)CC(=O)O)CC(=O)O [EDTA, ethylenediaminetetraacetic acid]

Peak II (%) ([2]; inhibitor 1 mM): 142%
Peak I (%) ([3]; inhibitor 1 mM): 108%
% CONTROL ([5]; inhibitor 1 mM): 99%
Compound: O=C(O)CN(CCOCCOCCN(CC(=O)O)CC(=O)O)CC(=O)O [EGTA]
